Reference: ChEMBL document CHEMBL1201862, “PubChem BioAssay data set” (2004)
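Exposure lasted 48 hours, with cells grown in 96-well plates and compounds tested at five concentrations. Abbreviation: GI50, concentration required for 50% inhibition of growth.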 Activity calls are given as the source filed them. No stated cut-off is given here; in the data, active = GI50 up to about 1.1 µM and inactive = higher.

What was measured:
Assay in all cases: NCI anticancer screen, dose series, 48 h
786-0 = tested on: 786-0
A498 = tested on: A498
A549 = tested on: A549
ACHN = tested on: ACHN
BT-549 = tested on: BT-549
CAKI-1 = tested on: CAKI-1
CCRF-CEM = tested on: CCRF-CEM
COLO 205 = tested on: COLO 205
DU-145 = tested on: DU-145
EKVX = tested on: EKVX
HCC 2998 = tested on: HCC 2998
HCT-116 = tested on: HCT-116
HCT-15 = tested on: HCT-15
HOP-62 = tested on: HOP-62
HOP-92 = tested on: HOP-92
IGROV-1 = tested on: IGROV-1
K562 = tested on: K562
KM12 = tested on: KM12
LOX IMVI = tested on: LOX IMVI
M14 = tested on: M14
MCF7 = tested on: MCF7
MDA-MB-231 = tested on: MDA-MB-231
MDA-MB-435 = tested on: MDA-MB-435
MDA-N = tested on: MDA-N
MOLT-4 = tested on: MOLT-4
NCI-H226 = tested on: NCI-H226
NCI-H23 = tested on: NCI-H23
NCI-H460 = tested on: NCI-H460
NCI/ADR-RES = tested on: NCI/ADR-RES
OVCAR-3 = tested on: OVCAR-3
OVCAR-4 = tested on: OVCAR-4
OVCAR-5 = tested on: OVCAR-5
OVCAR-8 = tested on: OVCAR-8
PC-3 = tested on: PC-3
RPMI-8226 = tested on: RPMI-8226
RXF 393 = tested on: RXF 393
SF-295 = tested on: SF-295
SF-539 = tested on: SF-539
SK-MEL-28 = tested on: SK-MEL-28
SK-MEL-2 = tested on: SK-MEL-2
SK-MEL-5 = tested on: SK-MEL-5
SN12C = tested on: SN12C
SNB-19 = tested on: SNB-19
SNB-75 = tested on: SNB-75
SR = tested on: SR
SW-620 = tested on: SW-620
T47D = tested on: T47D
TK-10 = tested on: TK-10
U-251 = tested on: U-251
UACC-257 = tested on: UACC-257
UACC-62 = tested on: UACC-62
UO-31 = tested on: UO-31
HL-60 = tested on: HL-60
HT-29 = tested on: HT-29
Hs-578T = tested on: Hs-578T
Malme-3M = tested on: Malme-3M
NCI-H522 = tested on: NCI-H522
SF-268 = tested on: SF-268

Compound: CC(=O)O[C@H]1CC[C@H]2[C@@H]3CCC4=CC(=O)C=C[C@]4(O)[C@H]3CC[C@]12C
- GI50 (786-0): 50.6 µM (inactive)
- GI50 (A498): 42.8 µM (inactive)
- GI50 (A549): > 42 µM (inactive)
- GI50 (ACHN): > 84.5 µM (inactive)
- GI50 (BT-549): 43 µM (inactive)
- GI50 (CAKI-1): > 55.1 µM (inactive)
- GI50 (CCRF-CEM): 13.5 µM (inactive)
- GI50 (COLO 205): 22.4 µM (inactive)
- GI50 (DU-145): > 50.4 µM (inactive)
- GI50 (EKVX): 31.7 µM (inactive)
- GI50 (HCC 2998): 45.1 µM (inactive)
- GI50 (HCT-116): 21.9 µM (inactive)
- GI50 (HCT-15): 29.6 µM
- GI50 (HOP-62): > 100 µM (inactive)
- GI50 (HOP-92): 23.9 µM (inactive)
- GI50 (IGROV-1): 55.1 µM (inactive)
- GI50 (K562): 7.66 µM (inactive)
- GI50 (KM12): 14.9 µM (inactive)
- GI50 (LOX IMVI): 12.9 µM (inactive)
- GI50 (M14): 32.1 µM (inactive)
- GI50 (MCF7): 26.7 µM (inactive)
- GI50 (MDA-MB-231): > 82.8 µM (inactive)
- GI50 (MDA-MB-435): 16.4 µM (inactive)
- GI50 (MDA-N): 29.9 µM (inactive)
- GI50 (MOLT-4): 8 µM (inactive)
- GI50 (NCI-H226): 16.6 µM (inactive)
- GI50 (NCI-H23): 9.91 µM (inactive)
- GI50 (NCI-H460): 32.2 µM (inactive)
- GI50 (NCI/ADR-RES): 12 µM (inactive)
- GI50 (OVCAR-3): 42.1 µM (inactive)
- GI50 (OVCAR-4): > 48.9 µM (inactive)
- GI50 (OVCAR-5): > 100 µM (inactive)
- GI50 (OVCAR-8): 19.1 µM (inactive)
- GI50 (PC-3): 30.1 µM (inactive)
- GI50 (RPMI-8226): 3.47 µM (inactive)
- GI50 (RXF 393): 20.6 µM (inactive)
- GI50 (SF-295): 16.6 µM (inactive)
- GI50 (SF-539): 31.3 µM (inactive)
- GI50 (SK-MEL-28): 28.2 µM (inactive)
- GI50 (SK-MEL-2): 22.1 µM (inactive)
- GI50 (SK-MEL-5): 4.6 µM (inactive)
- GI50 (SN12C): > 71.9 µM (inactive)
- GI50 (SNB-19): 71.6 µM (inactive)
- GI50 (SNB-75): 14.7 µM (inactive)
- GI50 (SR): 0.738 µM (active)
- GI50 (SW-620): 25.5 µM (inactive)
- GI50 (T47D): 13.3 µM (inactive)
- GI50 (TK-10): > 100 µM (inactive)
- GI50 (U-251): 46 µM (inactive)
- GI50 (UACC-257): 18.4 µM (inactive)
- GI50 (UACC-62): 42.3 µM (inactive)
- GI50 (UO-31): 55.5 µM (inactive)

Compound: O=C(c1cc(Cl)ccc1Cl)N1CCN(c2cccc(Cl)c2)CC1
- GI50 (786-0): 15.3 µM (inactive)
- GI50 (A498): 12.7 µM (inactive)
- GI50 (A549): 11 µM (inactive)
- GI50 (ACHN): 22.8 µM (inactive)
- GI50 (BT-549): 8.61 µM (inactive)
- GI50 (CAKI-1): 17.7 µM (inactive)
- GI50 (CCRF-CEM): 12.2 µM (inactive)
- GI50 (DU-145): 31.5 µM (inactive)
- GI50 (EKVX): 22.9 µM (inactive)
- GI50 (HCC 2998): 13.5 µM (inactive)
- GI50 (HCT-116): 11.4 µM (inactive)
- GI50 (HCT-15): 8.85 µM
- GI50 (HL-60): 38.4 µM (inactive)
- GI50 (HOP-62): 16 µM (inactive)
- GI50 (HOP-92): > 10 µM (inactive)
- GI50 (HT-29): 12.4 µM (inactive)
- GI50 (Hs-578T): 21.9 µM (inactive)
- GI50 (IGROV-1): 10.8 µM (inactive)
- GI50 (K562): 3.92 µM (inactive)
- GI50 (KM12): 6.07 µM (inactive)
- GI50 (LOX IMVI): 10.9 µM (inactive)
- GI50 (M14): 22.2 µM (inactive)
- GI50 (MCF7): 12.4 µM (inactive)
- GI50 (MDA-MB-231): 5.6 µM (inactive)
- GI50 (MDA-N): 1.87 µM (inactive)
- GI50 (MOLT-4): 8.51 µM (inactive)
- GI50 (Malme-3M): 11.1 µM (inactive)
- GI50 (NCI-H226): 12.8 µM (inactive)
- GI50 (NCI-H23): 32.9 µM (inactive)
- GI50 (NCI-H460): 14.6 µM (inactive)
- GI50 (NCI-H522): 10.6 µM (inactive)
- GI50 (OVCAR-3): 14.5 µM (inactive)
- GI50 (OVCAR-4): 33 µM (inactive)
- GI50 (OVCAR-5): 26.4 µM (inactive)
- GI50 (OVCAR-8): 14.8 µM (inactive)
- GI50 (PC-3): 2.08 µM (inactive)
- GI50 (RPMI-8226): 22.3 µM (inactive)
- GI50 (RXF 393): 11.1 µM (inactive)
- GI50 (SF-268): 27.9 µM (inactive)
- GI50 (SF-295): 7.55 µM (inactive)
- GI50 (SF-539): 13.6 µM (inactive)
- GI50 (SK-MEL-28): 15.6 µM (inactive)
- GI50 (SK-MEL-5): 6.59 µM (inactive)
- GI50 (SN12C): 4.09 µM (inactive)
- GI50 (SNB-19): 34.8 µM (inactive)
- GI50 (SNB-75): 13.9 µM (inactive)
- GI50 (SR): 26.4 µM (inactive)
- GI50 (SW-620): 24.2 µM (inactive)
- GI50 (T47D): 10.7 µM (inactive)
- GI50 (TK-10): 49.5 µM (inactive)
- GI50 (U-251): 19 µM (inactive)
- GI50 (UACC-257): 15.2 µM (inactive)
- GI50 (UO-31): 19.7 µM (inactive)
